Experimental data published in US20100286260A1, “MILNACIPRAN FORMULATIONS” (priority 2009, published 2010).

Columns and labels:
[1] = Deliquescence; assay type: physicochemical; settings: room temperature
Text: (§1) Milnacipran can be easily processed in solvent state with conventional binder such as Povidone. However, in aqueous state the milnacipran has some unusual properties which present difficulties in drug layering approach. […] In exemplary embodiments, the PEG functions as a co-binder, anti-tacking agent, plasticizer to HPMC and as an eraser to the drug's deliquescent property.

[2] = Conversion to cyclic degradation product F1612 in 0.1 M pH 9.0 buffer at 50° C.; assay type: physicochemical; settings: 50° C. and pH 9.0
Procedure: Milnacipran hydrochloride was exposed to 0.1 M pH 9.0 buffer (glycine-NaOH) at 50° C. in a closed glass flask for several days.

[3] = system: uptake of dopamine; settings: cited from earlier work
[4] = assay type: physicochemical
Text: as §1

**Q.** For `CCN(CC)C(=O)C1(c2ccccc2)CC1CN` (stereo not shown) [Milnacipran, milnacipran], which “deliquescent at RH” value [1] is on record?
**A.** 75-80 % RH

**Q.** And the “formation of the cyclic degradation product” value [2]?
**A.** rapid formation

**Q.** What about the “effect on the uptake of dopamine” value [3] of the same compound?
**A.** does not affect

**Q.** What about the solubility in water [4] of the same compound?
**A.** highly soluble
